Measurements published in publication PMC12673733, “Hydroxyethylamine & phthalimide analogs restoring defects due to GNE dysfunction: rare disease therapeutic significance” (Molecular Medicine, 2025).

Target: T1, r-wtGNE (hGNE1; recombinant wild type GNE) (Homo sapiens, UniProt Q9Y223)
T1 construct: recombinant full-length GNE; expressed in E. coli, partially purified (methods also name pcDNA3.1 vector)
T1 sequence (Q9Y223 1-722): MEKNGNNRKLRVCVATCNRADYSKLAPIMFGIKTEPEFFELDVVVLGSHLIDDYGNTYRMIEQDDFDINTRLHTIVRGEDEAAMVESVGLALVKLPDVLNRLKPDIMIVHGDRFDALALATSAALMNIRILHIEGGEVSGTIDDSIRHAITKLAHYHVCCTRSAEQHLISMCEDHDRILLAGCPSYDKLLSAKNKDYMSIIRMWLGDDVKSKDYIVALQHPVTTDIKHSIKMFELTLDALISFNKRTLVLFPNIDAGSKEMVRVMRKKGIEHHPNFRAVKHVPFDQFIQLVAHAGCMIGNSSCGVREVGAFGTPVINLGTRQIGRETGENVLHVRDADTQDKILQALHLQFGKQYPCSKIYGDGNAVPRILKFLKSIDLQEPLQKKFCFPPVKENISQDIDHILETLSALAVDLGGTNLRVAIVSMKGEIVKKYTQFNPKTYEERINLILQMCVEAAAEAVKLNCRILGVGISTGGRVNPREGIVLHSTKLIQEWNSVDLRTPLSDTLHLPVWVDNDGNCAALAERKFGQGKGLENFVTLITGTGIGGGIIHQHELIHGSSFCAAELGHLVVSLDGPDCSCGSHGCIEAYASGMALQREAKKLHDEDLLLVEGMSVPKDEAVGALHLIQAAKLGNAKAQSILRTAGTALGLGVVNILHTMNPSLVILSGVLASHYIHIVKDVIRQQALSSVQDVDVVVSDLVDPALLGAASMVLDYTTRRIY
Test: SPR, GNE immobilised on gold chip
Format: binding

C[C@H](C(=O)N[C@@H](Cc1ccccc1)[C@@H](O)CN1CCN(Cc2ccccc2)CC1)c1ccccc1 [LTC-181, (S)-N-((2 S,3 S)−4-(4-benzylpiperazin-1-yl)−3-hydroxy-1-phenylbutan-2-yl)−2-phenylpropanamide]
Kd: 3 mM
